Two molecules from patent publication US20110086899A1, “PHARMACEUTICAL COMPOSITIONS FOR ORAL ADMINISTRATION” (XENON PHARMACEUTICALS INC., priority 2009, published 2011) can be followed below.

Usually Tmax stands for the time from dosing to the highest level. The Cmax is the highest concentration seen after dosing. Broadly, the IC50 is the concentration needed to halve the response being measured. Low values mean greater potency, high ones weaker potency.

“Also recorded” adds a separate entry of the source. Bounds are passed on as bounds.

The nature of data set [1]: solubility in excipients and excipient combinations. The class given is physicochemical. The protocol:
Determination of the solubility of a spiro-oxindole compound of the invention, as a racemate, a single enantiomer, or a non-racemic mixture of enantiomers, or a pharmaceutically acceptable salt thereof, in each of the above excipients was carried out by weighing a specified quantity of the excipient into a scintillation vial and then adding a weighed quantity of the spiro-oxindole compound of the invention, as a racemate, a single enantiomer, or a non-racemic mixture of enantiomers, or a pharmaceutically acceptable salt thereof. Heating and vortexing was then applied as required to dissolve the spiro-oxindole compound of the invention, as a racemate, a single enantiomer, or a non-racemic mixture of enantiomers, or a pharmaceutically acceptable salt thereof. If the initial quantity of the spiro-oxindole compound of the invention, as a racemate, a single enantiomer, or a non-racemic mixture of enantiomers, or a pharmaceutically acceptable salt thereof, dissolved, then an additional amount of the spiro-oxindole compound of the invention, as a racemate, a single enantiomer, or a non-racemic mixture of enantiomers, or a pharmaceutically acceptable salt thereof, was added to determine the maximum solubility.
The rationale for preparing each combination is given as well: […]

A short description of data set [2]: in vivo pharmacokinetic profile after oral administration to dogs. Also noted: species or system male beagle dogs. The settings on record: fasted dogs. On the procedure: The in vivo pharmacokinetic profiles of the pharmaceutical compositions of the invention were determined as follows. Pharmaceutical compositions of the invention were orally administered to dogs in a controlled experiment to determine pharmacokinetic profile of a spiro-oxindole compound of the invention in a pharmaceutical composition of the invention.
Non-naïve male beagle dogs (Marshall Farms USA, Inc.) ranging in body weights from 6-10 Kg were used for the study. Each dog was fasted overnight before dosing. The fasted dogs (n=3/group) were given a single dose of 100 mg capsule (as setout in Table 4 above) or 400 mg (4×100 mg capsule) by oral administration (PO). Food was returned 4-hours post-dose. Blood samples were collected via jugular venipuncture at various timepoints ([…], 1, 2, 4, 6, 8, 24 and 48 hrs) after administration and plasma concentration was determined by liquid chromatography mass spectroscopy (LC-MS/MS). Concentrations of the active ingredient in the plasma samples at each timepoint were determined using standard methods known to one skilled in the art. The active ingredient concentrations were plotted against time (time in hours versus concentration in ng/mL) and the area under the curve extrapolated to infinity (AUCinf), the Cmax (peak plasma concentration of the active ingredient) and Tmax (time after administration of the pharmaceutical composition when peak plasma concentration level occurs) were calculated.

The target in data set [3] is Nav1.7 voltage-gated sodium channel (Homo sapiens, UniProt Q15858). The experiment in a line: inhibition of Nav1.7.
Chain of Nav1.7 voltage-gated sodium channel (Q15858 whole entry): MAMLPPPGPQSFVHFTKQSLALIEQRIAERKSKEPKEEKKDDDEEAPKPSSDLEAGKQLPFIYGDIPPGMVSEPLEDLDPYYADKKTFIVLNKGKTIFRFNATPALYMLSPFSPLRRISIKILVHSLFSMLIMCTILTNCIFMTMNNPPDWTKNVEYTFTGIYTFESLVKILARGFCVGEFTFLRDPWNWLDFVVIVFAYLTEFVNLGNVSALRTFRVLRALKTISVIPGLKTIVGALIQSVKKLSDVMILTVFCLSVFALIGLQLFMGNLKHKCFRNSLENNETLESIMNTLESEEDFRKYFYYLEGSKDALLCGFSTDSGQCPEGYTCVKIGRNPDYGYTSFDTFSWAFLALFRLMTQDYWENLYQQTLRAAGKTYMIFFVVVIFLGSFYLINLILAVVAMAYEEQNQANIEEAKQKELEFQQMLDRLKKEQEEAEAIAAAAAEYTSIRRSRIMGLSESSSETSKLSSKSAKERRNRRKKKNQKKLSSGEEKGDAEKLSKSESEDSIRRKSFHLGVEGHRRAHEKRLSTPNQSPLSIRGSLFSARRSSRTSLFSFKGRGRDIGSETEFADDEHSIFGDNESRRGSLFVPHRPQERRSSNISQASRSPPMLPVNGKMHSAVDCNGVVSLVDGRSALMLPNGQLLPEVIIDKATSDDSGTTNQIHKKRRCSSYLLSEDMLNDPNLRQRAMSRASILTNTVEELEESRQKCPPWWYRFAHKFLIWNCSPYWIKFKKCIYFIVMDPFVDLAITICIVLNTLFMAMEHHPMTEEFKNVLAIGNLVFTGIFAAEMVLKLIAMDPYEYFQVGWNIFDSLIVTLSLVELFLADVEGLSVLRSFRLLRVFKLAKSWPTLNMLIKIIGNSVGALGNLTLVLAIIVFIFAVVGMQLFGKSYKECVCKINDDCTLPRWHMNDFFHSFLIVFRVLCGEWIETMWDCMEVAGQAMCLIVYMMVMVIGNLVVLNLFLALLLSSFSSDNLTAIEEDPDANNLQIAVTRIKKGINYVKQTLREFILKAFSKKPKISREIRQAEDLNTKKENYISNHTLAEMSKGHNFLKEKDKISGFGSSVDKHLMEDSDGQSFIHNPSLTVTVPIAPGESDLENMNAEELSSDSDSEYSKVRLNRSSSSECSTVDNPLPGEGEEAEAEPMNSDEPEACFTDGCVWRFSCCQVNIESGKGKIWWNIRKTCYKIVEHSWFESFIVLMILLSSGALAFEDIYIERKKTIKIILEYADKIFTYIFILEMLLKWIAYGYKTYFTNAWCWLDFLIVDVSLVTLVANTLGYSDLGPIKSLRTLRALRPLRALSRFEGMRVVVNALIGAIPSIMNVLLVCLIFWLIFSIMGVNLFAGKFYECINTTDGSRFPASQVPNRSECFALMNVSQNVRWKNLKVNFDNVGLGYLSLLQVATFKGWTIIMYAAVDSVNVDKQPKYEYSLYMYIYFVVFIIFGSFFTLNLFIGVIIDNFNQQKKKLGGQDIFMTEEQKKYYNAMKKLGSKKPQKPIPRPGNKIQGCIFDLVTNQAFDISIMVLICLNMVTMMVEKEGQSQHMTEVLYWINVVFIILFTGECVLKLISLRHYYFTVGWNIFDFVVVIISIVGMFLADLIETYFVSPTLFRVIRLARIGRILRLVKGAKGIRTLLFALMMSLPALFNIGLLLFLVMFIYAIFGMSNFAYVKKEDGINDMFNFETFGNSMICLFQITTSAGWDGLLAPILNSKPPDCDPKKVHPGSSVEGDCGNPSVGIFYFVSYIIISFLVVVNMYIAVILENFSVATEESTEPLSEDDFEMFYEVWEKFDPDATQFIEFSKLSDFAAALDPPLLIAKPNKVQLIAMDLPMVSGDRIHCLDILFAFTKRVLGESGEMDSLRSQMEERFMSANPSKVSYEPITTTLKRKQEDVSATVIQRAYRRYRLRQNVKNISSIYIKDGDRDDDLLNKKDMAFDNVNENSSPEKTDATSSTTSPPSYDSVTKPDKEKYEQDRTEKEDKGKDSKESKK
Data set [4] deals with pain following extraction of impacted third molar teeth. The experiment in a line: clinical trial for treatment of dental pain. The class given is in vivo, human. The following applies: single 500 mg oral dose of composition comprising COMPOUND B. The protocol: The purpose of this clinical trial was to compare the safety and efficacy (onset, duration of relief, and overall efficacy) of a single 500 mg dose of a pharmaceutical composition of the invention comprising COMPOUND B versus a placebo dose for relief of pain following extraction of impacted third molar teeth. Sixty-one subjects were enrolled in the study. The mean age for the subjects was 20.4 years, and all subjects were male. The majority of subjects were Caucasians (95.1%). The severity and relief of the pain was measured using an 11-point Pain Intensity Numerical Rating Scale (graded from 0=no pain at all to 10=worst pain imaginable) (PINRS) and a 5-point Categorical Pain Relief Scale (REL). Subjects completed the PINRS after surgery, but before the administration of (S)-enantiomer of the invention. Efficacy variables were derived from the REL and PINRS scores and included total pain relief (TOTPAR), pain intensity difference (PID), and summed pain intensity difference (SPID) and evaluated at time points of 4, 6, 8, and 12 hours after administration of the pharmaceutical composition of the invention comprising COMPOUND B.

Data set [5] deals with sodium channel. Description: guanidine influx assay (WO 06/110917, BIOLOGICAL EXAMPLE 1). It is filed as cell-based. The following applies: inhibition of ion flux through a sodium channel. On the procedure:
Typically, a successful therapeutic effective amount of an pharmaceutical composition of the invention for oral administration to a mammal, in need thereof, will meet some or all of the following criteria. Animal model efficacy of a spiro-oxindole compound of the invention, as a racemate, a single enantiomer, or a non-racemic mixture of enantiomers, or a pharmaceutically acceptable salt thereof, should be less than about 0.1 μg/Kg to about 100 mg/Kg body weight and the target human dose of a spiro-oxindole compound of the invention, as a racemate, a single enantiomer, or a non-racemic mixture of enantiomers, or a pharmaceutically acceptable salt thereof, should be between 0.1 μg/Kg to about 100 mg/Kg body weight, although doses outside of this range may be acceptable (“mg/Kg” means milligrams of compound per kilogram of body mass of the subject to whom it is being administered). The therapeutic index (or ratio of toxic dose to therapeutic dose) of a spiro-oxindole compound of the invention, as a racemate, a single enantiomer, or a non-racemic mixture of enantiomers, or a pharmaceutically acceptable salt thereof, should be greater than 100. […]

Take `O=C1N(Cc2ccc(C(F)(F)F)o2)c2ccccc2[C@]12COc1cc3c(cc12)OCO3` [COMPOUND B, (S)-1′-{[5-(trifluoromethyl)-2-furyl]methyl}spiro[furo[2,3-f][1,3]benzodioxole-7,3′-indol]-2′(1′-H)-one]: the “solubility in caprylic/capric glycerides such as Imwitor 742” value in data set [1] (excipient Imwitor 742, compared with other excipients) is given as “less than other excipients”. Further, in data set [2] (single PO dose 100 mg or 400 mg), the “absorption following PO administration” value is listed as “readily absorbed”. For the same molecule, the Tmax in data set [2] (male, beagle, dog, plasma, single PO dose 100 mg capsule (Table 4) or 400 mg (4×100 mg capsule)) lay in the range of 1 to 3 h. The molecule further registered a Cmax in data set [2] (male, beagle, dog, single PO dose 100 mg capsule (Table 4) or 400 mg (4×100 mg capsule), plasma) of 1.3 to 1.6 µg/mL. For the same molecule, in data set [3], the “inhibition of Nav1.7” value was “has been shown to inhibit”. Besides, in data set [4], the onset of action entry is listed as “slow onset of action”, the “pain relief compared to placebo” value is “higher” and the “statistical significance from the placebo” value was “not achieved”. Moreover, the “primary and all secondary endpoints (TOTPAR, PID, SPID) versus placebo” value in data set [4] (4, 6, 8 and 12 hours) is listed as “consistent analgesic trend”.

On to `O=C1N(Cc2ccc(C(F)(F)F)o2)c2ccccc2C12COc1cc3c(cc12)OCO3` (racemic) [COMPOUND A, 1′-{[5-(trifluoromethyl)-2-furyl]methyl}spiro[furo[2,3-f][1,3]benzodioxole-7,3′-indol]-2′(1′H)-one], for which the “solubility in Labrafac” value in data set [1] (excipient Labrafac) is recorded as “readily soluble in Labrafac ®. The”. Further, the “solubility in Labrasol” value in data set [1] (excipient Labrasol) is recorded as “best excipient; also recorded: soluble in Labrasol ®, the excipient”. The “solubility in PEG 400” value in data set [1] (excipient PEG 400) is recorded as “readily soluble in PEG 400. PEG”. For the same molecule, the “solution in the excipient combinations of Table 2” value in data set [1] (upon mixing and heating to 70-80° C.) is listed as “suitable for producing a solution”. This molecule registered an IC50 in data set [5] of less than 1 µM.
